# Paper PMC11873611 (Acta Pharmaceutica Sinica. B, 2024)
# Changes are numbered by the printed parent chain.
# Key:
# PGAM5 [1] = biological target: T1, PGAM5 (Mus musculus, UniProt Q8BX10); experiment: DARTS, CETSA and SIP target engagement in BMDMs; format: cell-based
# T1 sequence (Q8BX10 1-288): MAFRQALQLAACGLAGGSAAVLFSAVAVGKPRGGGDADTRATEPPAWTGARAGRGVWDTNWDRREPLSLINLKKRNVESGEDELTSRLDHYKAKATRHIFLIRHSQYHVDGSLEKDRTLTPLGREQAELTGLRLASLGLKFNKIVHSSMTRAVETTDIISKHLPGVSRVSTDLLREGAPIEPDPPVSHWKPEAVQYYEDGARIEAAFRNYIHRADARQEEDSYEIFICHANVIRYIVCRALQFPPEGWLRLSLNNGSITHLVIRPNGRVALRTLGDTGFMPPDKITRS
# PGAM5 [2] = biological target: T2, PGAM5 (Homo sapiens, UniProt Q96HS1, C168A); experiment: in vitro PGAM5 phosphatase assay; format: biochemical
# T2 sequence (Q96HS1 22-289 C168A): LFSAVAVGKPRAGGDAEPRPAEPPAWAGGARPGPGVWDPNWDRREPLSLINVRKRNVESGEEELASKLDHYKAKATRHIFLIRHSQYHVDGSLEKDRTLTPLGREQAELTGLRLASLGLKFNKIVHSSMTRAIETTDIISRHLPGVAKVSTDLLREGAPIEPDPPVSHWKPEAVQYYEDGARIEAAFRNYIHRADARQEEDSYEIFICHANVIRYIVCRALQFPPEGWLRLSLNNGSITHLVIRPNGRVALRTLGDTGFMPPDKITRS
# PGAM5 [3] = biological target: T3, PGAM5 (Homo sapiens, UniProt Q96HS1, C229A); experiment: in vitro PGAM5 phosphatase assay; format: biochemical
# T3 sequence (Q96HS1 22-289 C229A): T2 sequence (Q96HS1 22-289 C168A) with A147C, C208A
# PGAM5 [4] = biological target: T4, PGAM5 (Homo sapiens, UniProt Q96HS1); experiment: SPR; format: binding
# T4 sequence (Q96HS1 22-289): T2 sequence (Q96HS1 22-289 C168A) with A147C
# PGAM5 [5] = biological target: T4, PGAM5; experiment: SPR; format: binding; remark: listed apart in the source
Structure (SMILES),"DARTS, CETSA and SIP target engagement in BMDMs (PGAM5 [1])","in vitro PGAM5 phosphatase assay (phosphopeptide, BIOMOL Green) (PGAM5 [2])","in vitro PGAM5 phosphatase assay (phosphopeptide, BIOMOL Green) (PGAM5 [3])",Kd (PGAM5 [4]) [nM],SPR (Fig. S9L and S9M) (PGAM5 [5])
O=C1O[C@H]2[C@@H]3OC(=O)c4cc(O)c(O)c(O)c4-c4c(O)c(O)c5oc(=O)c6c(c(O)c(O)c7oc(=O)c4c5c76)-c4c(cc(O)c(O)c4O)C(=O)OC[C@H]3OC(O)[C@@H]2OC(=O)c2cc(O)c(O)c(O)c2-c2c1cc(O)c(O)c2O (mixture of isomers) [punicalagin],"punicalagin significantly restrained the proteolysis of PGAM5 by pronase, further supporting that punicalagin could bind to PGAM5 in BMDMs",punicalagin still inhibited the phosphatase activity of PGAM5 C168A or C229A protein mutant,punicalagin still inhibited the phosphatase activity of PGAM5 C168A or C229A protein mutant,~0.3,–
O=C1OC[C@H]2OC(O)[C@H](O)[C@@H](O)[C@@H]2OC(=O)c2cc(O)c(O)c(O)c2-c2c(O)c(O)c3oc(=O)c4c(c(O)c(O)c5oc(=O)c2c3c54)-c2c1cc(O)c(O)c2O (mixture of isomers) [punicalin],–,–,–,–,there was a similar direct interaction between punicalin and ΔN21 PGAM5 or ΔN90 PGAM5 compared with punicalagin
